This test relates to HFE−/− mice. Put plainly: Liver iron concentrations, TMPRSS6 siRNA with or without Deferiprone, HFE−/− mice. It counts as in vivo, mouse. The settings on record: 3 mg/kg siRNA conjugate s.c. Day 1 or Day 1 and 22, Deferiprone 0.5 mg/ml in drinking water, Day 43. The procedure:
Three months old C57BL6/J congenic female HFE knock-out mice (−/−) and three months old female C57BL6/J wild type mice (+/+) were used in this study (Herrmann et al., Mol. Med, 2004. 82 (1): p1-3). HFE−/− mice (n=8) were treated on Day 1 (1×) or on Day 1 and on Day 22 (2×) subcutaneously with either PBS (PBS) or 3 mg/kg TMPRSS6 siRNA conjugate (TMP) or 3 mg/kg non-targeting siRNA conjugate (Luc). In addition, cohort 7 to 10 received Deferiprone supplied in drinking water at a concentration of 0.5 mg/ml. Cohorts 1 and 2 were terminated on Day 1 (Predose) all other cohorts on Day 43 (6 weeks after start of the treatment) to collect serum and tissue samples for analyses. Treatment with TMPRSS6 siRNAs enhances the reduction of tissue iron levels by iron chelator. 3 months old HFE−/− (rodent model for hereditary hemochromatosis and iron overload) or wild type mice were used for this study and treated as described in Example 46. Liver tissue samples were collected to assess liver iron concentrations before start of the treatment (predose) and at the end of the study at Day 43 (6 weeks after start of treatments). Liver tissue samples were dried and iron concentrations from dry weights were determined by acid extraction method. At the start of the study liver iron levels were already elevated in HFE−/− compared to wild type control mice (Predose). […]

Among the data in patent publication US20250025488A1, “NUCLEIC ACIDS FOR INHIBITING EXPRESSION OF TMPRSS6 AND IRON CHELATORS” (SILENCE THERAPEUTICS GMBH, priority 2018, published 2025) are Liver iron content values, retold here.

For the compound `Cc1c(O)c(=O)ccn1C` [Deferiprone], the Liver iron content entry is on record as “little to no effect on the liver iron content”.
